Data set [1] can be described thus: MTT: Cell Damaging and Protecting Effect Test. To be noted: rabbit, gastric mucosa cells, 10^-4 M, 37° C., smaller value is better, read-out: MTT: cell damaging rate. The format is cell-based, Japanese White rabbit. The text has this:
MTT: Cell Damaging and Protecting Effect Test
It is confirmed that there is no toxicity in cell level. Those having a toxicity in cell level are inappropriate as an anti-ulcer drug.
A male Japanese White rabbit (2.5 to 3 kg) was anesthetized to death by Nembutal™ and, immediately thereafter, its stomach was removed. The greater curvature of the stomach was incised so as to remove the stomach contents therefrom. After the mucosal surface was washed with HBSS (Hanks' Balanced Salt Solution), the stomach in ice-cooled HBSS was transferred to a laboratory. Then, after the pyloric antrum was removed, the gastric corpus mucosa was separated by a spatula and then minced into 2 to 3 mm^3 pieces in BME (Basal Medium Eagle). Thereafter, these pieces were shaken at 120 to 130 cycles/minute for 15 minutes at 37° C. in BME 60 ml containing 280 U/ml of dispase and 30 to 50 U/ml of collagenase. Here, the concentration of collagenase was appropriately changed for each lot in view of the state of cells. The pieces were washed twice with EBSS (Earle's Balanced Salt Solution) containing 1 mM of EDTA and then shaken in MEM (Minimum Essential Medium) containing 1 mM of EDTA at 37° C. for 5 minutes. Subsequently, they were shaken in the dispase and collagenase having the same concentrations as those mentioned above for 15 minutes so as to remove the supernatant and then further shaken at 37° C. for 50 to 60 minutes at 120 to 130 cycles/minute. Then, after being washed twice with HBSS, Ham F12 containing 2% of Ultrocer GT™ was used to attain the concentration of 1×10^6 cells/ml. Thus formed suspension was dispensed in each well of a 96-well plate by 200 μl. The plate was incubated in the atmosphere composed of 5% CO2 and 95% air at 37° C. for three days so as to attain a confluent state and then subjected to MTT assay.
The sample compound was dissolved in DMSO so as to attain a concentration of 10^-2 M and then diluted with HBSS containing 2% of Ultrocer G™ so as to attain a final concentration of 10^-4 M. To each group, which 8 wells were used for, 10 μl of MTT reagent was added immediately after 100 μl of the medium in each well was exchanged for same volume of the resulting solution of the sample compound. After being incubated in an atmosphere composed of 5% CO2 and 95% air at 37° C. for 4 hours, thus formed solution was centrifuged and then its supernatant was discarded. Subsequently, 100 μl of 100% ethanol was added to the residue so as to dissolve MTT formazan. Then, the absorbance (OD: 570 to 630) was measured by a microplate reader. This method utilizes a phenomenon in which MTT is changed to MTT formazan only by mitochondria of living cells so as to change color.
The cell damaging or cell protecting effect of the sample compound at the final concentration of 10^-4 M was expressed as cell damaging rate (%) as follows:
cell damaging rate (%)=(1-(absorbance in sample group/absorbance in control
Accordingly, the smaller value is better in the cell damaging rate.

The test system of data set [2] is isolated gastric fundic gland. Nature of the data set: CAP: Acid Secretion Inhibition Test In Vitro ([14C]-aminopyrine uptake test). To be noted: Oryctolagus cuniculus, 40 min, 10^-5 M, histamine 10^-5 M, 37° C., read-out: CAP: acid secretion inhibitory rate. The format is cell-based, Japanese White rabbit. Here is the method: CAP: Acid Secretion Inhibition Test In Vitro
The acid secretion inhibitory activity in a cell level is studied. It can also be used for studying the mechanism of the effect. […]
ii-a) Preparation of isolated gastric fundus gland suspension
First, an isolated gastric fundic gland sample was prepared. Namely, a male Japanese White rabbit (2.5 to 3 kg) was anesthetized to death with Nembutal™ and then the abdomen was incised. Immediately thereafter, the stomach was removed and, after its pyloric and cardiac antrum were severed, incised along its greater curvature into two sheets. The gastric contents adhering to the mucosal surface was washed out with ice-cooled PBS (-) and then carefully washed therein. The gastric wall was spread on a cork board with its mucosal surface facing up and the feed and mucus thereon were completely removed with sterile gauze. The mucosa was separated therefrom by a spatula and then collected in ice-cooled PBS (-). After being washed twice with PBS (-), the mucosa was minced into 2-3 mm^3 pieces by scissors. These pieces were further washed twice with a nutrient solution. The nutrient solution comprises 132.4 mM of NaCl, 5.4 mM of KCl, 5 mM of Na2 HPO4. 12H2 O, 1 mM of NaH2 PO4. 2H2 O, 1.2 mM of MgSO4, 1 mM of CaCl 2, 25 mM of HEPES, 2 mg/ml of glucose, and 1 mg/ml of BSA. Into 70 ml of the nutrient solution containing 1 mg/ml of collagenase, minced mucosal pieces were dispersed and intensely stirred in a conical flask with a stirrer at 37° C. for 40 to 60 minutes. During this period, 100% O2 was sprayed on the nutrient solution surface and the pH was appropriately measured such that it was immediately adjusted to pH 7.4, when the value was therebelow, with a base. The nutrient solution was added to the reaction solution so as to attain the total amount of about 200 ml. After being filtered through a mesh, the suspension was divisionally introduced into 50 ml centrifuge tubes and left for 15 minutes such that gastric fundic gland was deposited. The supernatant was repeatedly removed by an aspirator, dispersed in the nutrient solution, and then left such that the gastric fundic gland was washed three times. At this time, without using a pipette, the suspension was alternately introduced into two centrifuge tubes so as to effect dispersion. The number of cells was counted under microscope and adjusted to 1.6×10^6 cells/ml. […]
ii-b) [^14 C]-aminopyrine uptake test
Then, [^14 C]-aminopyrine uptake test was performed. After an Eppendorf tube was weighed, 10 μl (final concentration: 10^-5 M) of histamine dissolved in the above-mentioned nutrient solution, 10 μl (final concentration: 10^-5 M) of the test compound dissolved in DMSO, and 10 μl (final concentration: 0.05 μCi/ml) of [^14 C]-aminopyrine diluted with the nutrient solution were introduced therein and then 970 μl of the isolated gastric fundic gland suspension prepared above was added thereto. Subsequently, this mixture was shaken at 37° C. for 40 minutes at 125 cycles/minute. After being centrifuged for 30 minutes, 200 μl of its supernatant was collected into a mini-vial, while the rest was removed by an aspirator. The gland pellet was completely dried as the tube with its lid being opened was kept for one night in a drying oven at 80° C. and then the lid was closed and the weight was determined at room temperature. Then 100 μl of 1N KOH was added thereto and the tube with its lid being closed was treated at 60° C. for 1 to 2 hours so as to dissolve the pellet. Then, the contents thereof were transferred to a mini-vial. Into the mini-vial containing the supernatant or gland pellet, 4 ml of Atomlite™ was added and then the radioactivity was measured by a liquid scintillation counter. Here, after the radioactivity of the gland pellet was corrected by using a sample in which 20 mM of NaSCN was added so as to cancel the hydrogen ion concentration gradient, the integration ratio of aminopyrine specifically trapped by the gland pellet was calculated. […]

In the case of `CC(C)=CCC/C(C)=C/COc1ccc(C(=O)NCc2ccncc2)cc1` [Example 3, 4-(4-geranyloxybenzoylaminomethyl)pyridine], the cytotoxicity at 4 h, 100 µM in data set [1] is 16%. The inhibition at 10 µM in data set [2] stood at 99%.

For the compound `COc1ccc(SCCNC(=O)c2ccc(OC/C=C(\C)CCC=C(C)C)cc2)nc1` [Example 11, 2-[2-(4-geranyloxybenzoylamino)ethylthio]-5-methoxypyridine], the cytotoxicity at 4 h, 100 µM in data set [1] is -34%. In addition, the inhibition at 10 µM in data set [2] is 55%.

For the compound `CC(C)=CCC/C(C)=C/COc1ccc(C(=O)NCCc2ccncc2)cc1` [Example 2, 4-[2-(4-geranyloxybenzoylamino)ethyl]pyridine], in data set [1], the cytotoxicity at 4 h, 100 µM stood at 7%. Besides, the inhibition at 10 µM in data set [2] was determined as 99%.

Consider `COc1ccc(NCCNC(=O)c2ccc(OC/C=C(\C)CCC=C(C)C)cc2)nc1` [Example 8, 2-[2-(4-geranyloxybenzoylamino)ethylamino]-5-methoxypyridine], for which, in data set [1], the cytotoxicity at 4 h, 100 µM is -45%. Besides, the inhibition at 10 µM in data set [2] was 97%.

For the compound `CC(C)=CCC/C(C)=C/COc1ccc(C(=O)NCCNc2cc(C)cc(C)n2)cc1` [Example 10, 2,4-dimethyl-6-[2-(4-geranyloxybenzoylamino)ethylamino]pyridine], the cytotoxicity at 4 h, 100 µM in data set [1] stood at 65%. Besides, the inhibition at 10 µM in data set [2] turned out to be 101%.

For the compound `CC(C)=CCOc1ccc(OCC=C(C)C)c(C(=O)NCCc2ccncc2)c1` [Example 6, 4-[2-(2,5-diprenyloxybenzoylamino)ethyl]pyridine], the cytotoxicity at 4 h, 100 µM in data set [1] was -94%. Also, the inhibition at 10 µM in data set [2] stood at 100%.

Turning to `CC(C)=CCC/C(C)=C/COc1ccc(C(=O)NCCc2ccccn2)cc1` [Example 1, 2-[2-(4-geranyloxybenzoylamino)ethyl]pyridine], the cytotoxicity at 4 h, 100 µM in data set [1] was found to be 8%. Further, the inhibition at 10 µM in data set [2] worked out at 97%.

`CC(C)=CCC/C(C)=C/COc1ccc(C(=O)Nc2cccnc2)cc1` [Example 4, 3-(4-geranyloxybenzoylamino)pyridine]: the cytotoxicity at 4 h, 100 µM in data set [1] worked out at 6%. For the same compound, the inhibition at 10 µM in data set [2] is 44%.

As to `CC(C)=CCC/C(C)=C/COc1ccc(C(=O)NCCNc2cccnc2)cc1` [Example 7, 3-[2-(4-geranyloxybenzoylamino)ethylamino]pyridine], in data set [1], the cytotoxicity at 4 h, 100 µM came to 48%. The inhibition at 10 µM in data set [2] was 100%.

In the case of `CC(C)=CCC/C(C)=C/COc1ccc(C(=O)NCC(=O)Nc2ccccn2)cc1` [Example 13, 2-[2-(4-geranyloxybenzoylamino)acetylamino]pyridine], the cytotoxicity at 4 h, 100 µM in data set [1] is -36%. Besides, in data set [2], the inhibition at 10 µM was found to be 31%.

(Values after patent publication US5859032A, “Pyridine derivative, anti-ulcer drug, and antibacterial drug” (priority 1996, dated 1999).)
